We go through 25 molecules from patent US8455475B2 (Gruenenthal GmbH, priority 2009, dated 2013).

For this test, the target named is T1, rat B1R (bradykinin receptor 1) (Rattus norvegicus, UniProt P97583).
T1 construct: expressed in transfected cells; host or cells: CHO K1 cells
T1 sequence (P97583 1-337): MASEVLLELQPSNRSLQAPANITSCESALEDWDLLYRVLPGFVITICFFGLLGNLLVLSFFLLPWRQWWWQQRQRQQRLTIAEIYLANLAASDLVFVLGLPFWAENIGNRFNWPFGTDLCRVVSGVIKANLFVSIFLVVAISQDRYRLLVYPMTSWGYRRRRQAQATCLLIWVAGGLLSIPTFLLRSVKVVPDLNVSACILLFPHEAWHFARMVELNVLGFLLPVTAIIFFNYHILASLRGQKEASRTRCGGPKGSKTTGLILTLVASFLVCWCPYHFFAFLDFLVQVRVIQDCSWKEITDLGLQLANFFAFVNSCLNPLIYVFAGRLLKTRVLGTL
Put plainly: FLIPR Ca2+ assay (Fluo-4) on CHO K1 cells stably transfected with the B1R gene of the rat (rB1R cells): % inhibition at 10 μM / IC50, agonist Des-Arg9-bradykinin. In kind it is cell-based. The conditions noted are these: CHO-K1, rat B1R. In a few lines: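 Loading with Fluo-4 occurs for 60 min at 37 °C, or alternatively in buffer A, before FLIPR measurement. Compounds are applied, incubated 10–20 min, and then the EC80 agonist is added. Antagonism appears as reduced peak Ca2+ signal relative to maximal inhibition.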
As for `N#Cc1ccccc1CN1CCC2(CC1)CCN(C(=O)c1ccc3c(c1)C(NC(=O)c1cccc(Cl)c1Cl)CC3)C2` (stereo not shown) [IND_CC-724, 2,3-Dichloro-N-[6-[8-[(2-cyano-phenyl)-methyl]-2,8-diazaspiro[4.5]decane-2-carbonyl]-2,3-dihydro-1H-inden-1-yl]-benzamide], the inhibition (commonly the change of the read-out against control, counted positive when it falls) at 10 µM was determined as 86%.
For the molecule `Cc1nc(CN2CCC3(CC2)CCN(C(=O)c2ccc4c(c2)C(NC(=O)c2cc(C(F)(F)F)ccc2Cl)CC4)CC3)c[nH]1` (stereo not shown) [IND_CC-662, 2-Chloro-N-[6-[9-[(2-methyl-1H-imidazol-4-yl)-methyl]-3,9-diazaspiro[5.5]-undecane-3-carbonyl]-2,3-dihydro-1H-inden-1-yl]-5-(trifluoromethyl)benzamide], the inhibition at 10 µM came to 76%.
With `COc1ccc(C(=O)NC2CCc3ccc(C(=O)N4CCC5(CC4)CCN(c4ccncc4)CC5)cc32)c(Cl)c1` (stereo not shown) [IND_CC-211, 2-Chloro-4-methoxy-N-[6-(9-pyridin-4-yl-3,9-diazaspiro[5.5]undecane-3-carbonyl)-2,3-dihydro-1H-inden-1-yl]-benzamide], the inhibition at 10 µM was determined as 104%.
For `CN(C(=O)C1CC1)C1CCc2ccc(C(=O)N3CCC4(CC3)CCN(c3ccncc3)CC4)cc21` (stereo not shown) [IND_CC-369, N-Methyl-N-[6-(9-pyridin-4-yl-3,9-diazaspiro[5.5]undecane-3-carbonyl)-2,3-dihydro-1H-inden-1-yl]-cyclopropanecarboxylic acid amide] the value was 74%; for `Cc1cccc(Cl)c1C(=O)NC1CCc2ccc(C(=O)N3CCC4(CCN(CCc5ccccc5)CC4)C3)cc21` (stereo not shown) [IND_CC-769, 2-Chloro-6-methyl-N-[6-(8-phenethyl-2,8-diazaspiro[4.5]decane-2-carbonyl)-2,3-dihydro-1H-inden-1-yl]-benzamide], 91%.
As for `Cc1cccc(Cl)c1C(=O)NC1CCc2ccc(C(=O)N3CCC4(CCN(Cc5cnc(N(C)C)nc5)CC4)C3)cc21` (stereo not shown) [IND_CC-763, 2-Chloro-N-[6-[8-[(2-dimethylamino-pyrimidin-5-yl)-methyl]-2,8-diazaspiro-[4.5]decane-2-carbonyl]-2,3-dihydro-1H-inden-1-yl]-6-methyl-benzamide], the inhibition at 10 µM is 74%.
For `CN(C)c1ncc(CN2CCC3(CC2)CCN(C(=O)c2ccc4c(c2)C(NC(=O)c2cc(Cl)ccc2F)CC4)CC3)cn1` (stereo not shown) [IND_CC-676, 5-Chloro-N-[6-[9-[(2-dimethylamino-pyrimidin-5-yl)-methyl]-3,9-diazaspiro-[5.5]undecane-3-carbonyl]-2,3-dihydro-1H-inden-1-yl]-2-fluoro-benzamide] the value was 74%; for `N#Cc1ccccc1CN1CCC2(CC1)CCN(C(=O)c1ccc3c(c1)C(NC(=O)c1cc(C(F)(F)F)ccc1Cl)CC3)CC2` (stereo not shown) [IND_CC-668, 2-Chloro-N-[6-[9-[(2-cyano-phenyl)-methyl]-3,9-diazaspiro[5.5]undecane-3-carbonyl]-2,3-dihydro-1H-inden-1-yl]-5-(trifluoromethyl)-benzamide], 57%.
The value for `O=C(NC1CCc2ccc(C(=O)N3CCC4(CCN(CCc5ccccc5)CC4)C3)cc21)c1c(F)cccc1Cl` (stereo not shown) [IND_CC-780, 2-Chloro-6-fluoro-N-[6-(8-phenethyl-2,8-diazaspiro[4.5]decane-2-carbonyl)-2,3-dihydro-1H-inden-1-yl]-benzamide] was 101%; that for `O=C(NC1CCc2ccc(C(=O)N3CCC4(CCN(CCCc5ccc(F)cc5)CC4)C3)cc21)c1cc(Cl)ccc1F` (stereo not shown) [IND_CC-675, 5-Chloro-2-fluoro-N-[6-[8-[3-(4-fluorophenyl)-propyl]-2,8-diazaspiro[4.5]decane-2-carbonyl]-2,3-dihydro-1H-inden-1-yl]-benzamide] was 87%; that for `O=C(NC1CCc2ccc(C(=O)N3CCC4(CCN(Cc5ccncc5)CC4)CC3)cc21)c1cc(C(F)(F)F)ccc1Cl` (stereo not shown) [IND_CC-641, 2-Chloro-N-[6-[9-(pyridin-4-yl-methyl)-3,9-diazaspiro[5.5]undecane-3-carbonyl]-2,3-dihydro-1H-inden-1-yl]-5-(trifluoromethyl)-benzamide] was 74%.
The value for `COc1ccc(C(=O)NC2c3cc(C(=O)N4CCC5(CC4)CCN(c4ccncc4)CC5)ccc3CC2(C)C)c(F)c1` (stereo not shown) [IND_CC-311, N-[2,2-Dimethyl-6-(9-pyridin-4-yl-3,9-diazaspiro[5.5]undecane-3-carbonyl)-1,3-dihydro-inden-1-yl]-2-fluoro-4-methoxy-benzamide] was 83%; that for `COc1ccc(C(=O)NC2CCc3ccc(C(=O)N4CCC5(CC4)CCN(c4ccc(C(F)(F)F)cc4)CC5)cc32)c(Cl)c1` (stereo not shown) [IND_CC-213, 2-Chloro-4-methoxy-N-[6-[9-[4-(trifluoromethyl)-phenyl]-3,9-diazaspiro[5.5]undecane-3-carbonyl]-2,3-dihydro-1H-inden-1-yl]-benzamide] was 73%; that for `Cn1nnc2cc(CN3CCC4(CC3)CCN(C(=O)c3ccc5c(c3)C(NC(=O)c3cccc(Cl)c3Cl)CC5)CC4)ccc21` (stereo not shown) [IND_CC-756, 2,3-Dichloro-N-[6-[9-[(1-methyl-1H-benzotriazol-5-yl)-methyl]-3,9-diazaspiro[5.5]undecane-3-carbonyl]-2,3-dihydro-1H-inden-1-yl]-benzamide] was 104%.
As for `Cc1cccc(Cl)c1C(=O)NC1CCc2ccc(C(=O)N3CCC4(CCN(Cc5ccc6c(c5)nnn6C)CC4)C3)cc21` (stereo not shown) [IND_CC-766, 2-Chloro-6-methyl-N-[6-[8-[(1-methyl-1H-benzotriazol-5-yl)-methyl]-2,8-diazaspiro[4.5]decane-2-carbonyl]-2,3-dihydro-1H-inden-1-yl]-benzamide], the inhibition at 10 µM was 93%.
Take `O=C(NC1CCc2ccc(C(=O)N3CCC4(CCN(Cc5ccc(F)cc5F)CC4)C3)cc21)c1cc(C(F)(F)F)ccc1Cl` (stereo not shown) [IND_CC-635, 2-Chloro-N-[6-[8-[(2,4-difluoro-phenyl)-methyl]-2,8-diazaspiro[4.5]decane-2-carbonyl]-2,3-dihydro-1H-inden-1-yl]-5-(trifluoromethyl)-benzamide]: the inhibition at 10 µM was found to be 72%.
For `Cc1cc(F)cc(C)c1S(=O)(=O)NC1CCc2ccc(C(=O)N3CCC4(CCN(c5ccncc5)CC4)C3)cc21` (stereo not shown) [IND_CC-361, 4-Fluoro-2,6-dimethyl-N-[6-(8-pyridin-4-yl-2,8-diazaspiro[4.5]decane-2-carbonyl)-2,3-dihydro-1H-inden-1-yl]-benzenesulfonic acid amide] the value was 99%; for `CN(C(=O)C1CCC1)C1CCc2ccc(C(=O)N3CCC4(CC3)CCN(c3ccncc3)CC4)cc21` (stereo not shown) [IND_CC-414, N-Methyl-N-[6-(9-pyridin-4-yl-3,9-diazaspiro[5.5]undecane-3-carbonyl)-2,3-dihydro-1H-inden-1-yl]-cyclobutanecarboxylic acid amide], 102%; for `Cc1cc(F)cc(C)c1S(=O)(=O)N(C)C1CCc2ccc(C(=O)N3CCC4(CC3)CCN(c3ccncc3)CC4)cc21` (stereo not shown) [IND_CC-354, 4-Fluoro-N,2,6-trimethyl-N-[6-(9-pyridin-4-yl-3,9-diazaspiro[5.5]undecane-3-carbonyl)-2,3-dihydro-1H-inden-1-yl]-benzenesulfonic acid amide], 84%.
On to `CN(C)c1ccc(NC(=O)N2CCC3(CC2)CCN(C(=O)c2ccc4c(c2)C(NC(=O)c2ccccc2Cl)CC4)CC3)cc1` (stereo not shown) [IND_CC-707, 3-[3-[(2-Chloro-benzoyl)amino]-2,3-dihydro-1H-indene-5-carbonyl]-N-(4-dimethylaminophenyl)-3,9-diazaspiro[5.5]undecane-9-carboxylic acid amide], for which the inhibition at 10 µM amounted to 92%.
For `O=C(NC1CCc2ccc(C(=O)N3CCC4(CCN(Cc5ccc[nH]5)CC4)CC3)cc21)c1c(F)cccc1Cl` (stereo not shown) [IND_CC-783, 2-Chloro-6-fluoro-N-[6-[9-(1H-pyrrol-2-yl-methyl)-3,9-diazaspiro[5.5]undecane-3-carbonyl]-2,3-dihydro-1H-inden-1-yl]-benzamide] the value was 102%.
For `O=C(NC1CCc2ccc(C(=O)N3CCC4(CCN(Cc5ccc[nH]5)CC4)CC3)cc21)c1cc(Cl)ccc1F` (stereo not shown) [IND_CC-624, 5-Chloro-2-fluoro-N-[6-[9-(1H-pyrrol-2-yl-methyl)-3,9-diazaspiro[5.5]undecane-3-carbonyl]-2,3-dihydro-1H-inden-1-yl]-benzamide] the value was 62%; for `N#Cc1ccccc1CN1CCC2(CC1)CCN(C(=O)c1ccc3c(c1)C(N(C(=O)c1ccccc1Cl)C1CC1)CC3)C2` (stereo not shown) [IND_CC-541, 2-Chloro-N-[6-[8-[(2-cyano-phenyl)-methyl]-2,8-diazaspiro[4.5]decane-2-carbonyl]-2,3-dihydro-1H-inden-1-yl]-N-cyclopropyl-benzamide], 65%.
For `O=C(Nc1ccc(F)c(Cl)c1)N1CCC2(CC1)CCN(C(=O)c1ccc3c(c1)C(N(C(=O)c1ccccc1Cl)C1CC1)CC3)C2` (stereo not shown) [IND_CC-713, 2-[3-[(2-Chloro-benzoyl)-cyclopropyl-amino]-2,3-dihydro-1H-indene-5-carbonyl]-N-(3-chloro-4-fluoro-phenyl)-2,8-diazaspiro[4.5]decane-8-carboxylic acid amide] the value was 77%; for `COc1ccc(C(=O)N(C)C2CCc3ccc(C(=O)N4CCC5(CC4)CCN(c4ccncc4)CC5)cc32)c(Cl)c1` (stereo not shown) [IND_CC-201, 2-Chloro-4-methoxy-N-methyl-N-[6-(9-pyridin-4-yl-3,9-diazaspiro[5.5]undecane-3-carbonyl)-2,3-dihydro-1H-inden-1-yl]-benzamide], 99%.
